A short description of this experiment: Stopped-flow spectrophotometric analysis of kinetics of peroxynitrite decomposition. In kind it is biochemical. The note with it: 100 mM phosphate buffer pH 7.4, 25° C. From the text: Peroxynitrite was synthesized from hydrogen peroxide and nitrous acid using an sp250i syringe pump by modification of published procedures. See, Shimanovich, R.; Groves, J. T., Mechanisms of Peroxynitrite Decomposition Catalyzed by FeTMPS, a Bioactive Sulfonated Iron Porphyrin. Archives of Biochemistry and Biophysics 2001, 387, (2), 307-317; Saha, A.; Goldstein, S.; Cabelli, D.; Czapski, G., Determination of optimal conditions for synthesis of peroxynitrite by mixing acidified hydrogen peroxide with nitrite. Free Radical Biology & Medicine 1998, 24, (4), 653-659; and Uppu, R. M.; Squadrito, G. L.; Cueto, R.; Pryor, W. A., Selecting the most appropriate synthesis of peroxynitrite. […] Peroxynitrite concentrations were determined spectrophotometrically at 302 nm (ε302=1670 L mol^−1 cm^−1). […] In this manner, the concentration of peroxynitrite was determined to be 95 mM. […] Nitrite and nitrate anions were detected and quantified by measuring the absorbance decrease (indirect UV detection) at 310 nm. […] Concentrations of hydrogen peroxide in the peroxynitrite before and after treatment with MnO2 were measured by PeroXOquant Quantitative peroxide assay kit (Pierce Biotechnology), an assay based on the oxidation of Fe^2+ to Fe^3+ by H2O2 under acidic conditions. […]

“iron(III) chloride meso-tetrakis-2(N-(N-(2-methoxyethyl)acetamido)pyridyl porphyrin [Test porphyrin]”: the kcat was 1.4e+07 M⁻¹ s⁻¹.

The record behind these values is patent US8232267B2, “Porphyrin catalysts and methods of use thereof” (The Trustees of Princeton University, priority 2006, dated 2012).
